These results are taken from PubChem BioAssay AID179 (DTP/NCI, 2004).

For orientation: EC50 means the concentration that produces a half-maximal response. What is called IC50 is the point on the concentration scale where inhibition reaches its midpoint. Low values mean greater potency, high ones weaker potency.

For this test, the system named is CEM cells HIV-1 protection, formazan growth assay. In words: NCI AIDS Antiviral Assay. The settings on record: for IC50: measured here: growth of uninfected CEM cells. Summed up: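 Human CEM cells, uninfected and HIV-1-infected, received five drug concentrations, and growth was read by soluble formazan assay. Compounds giving at least 50% protection were retested; reproducible 100% protection defined confirmed active.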

“And” between values parts separate entries of the source, which are not always exact repeats. Identical values can stand only once. The source made the active and inactive calls.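 The calls were made as follows: active = compounds giving half or more protection of infected cells from virus-caused growth loss, again on retest; inactive = the rest.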

With `CCCCCCN(C(=O)Oc1ccccc1)C(C#N)c1ccccc1` (stereo not drawn), the EC50 was over 200 µM and the half-maximal inhibitory concentration (IC50) was over 200 µM.

On to `CCCCC1C(=O)N2[C@H](OC[C@@H]2C(C)C)O[C@@H]1C` (stereo partly drawn), for which the EC50 was over 977 µM and the IC50 was determined as 501 µM.

Regarding `C/C(=N\NC(=S)N(C)C)c1ccccn1`, the EC50 was over 2.24 µM and the half-maximal inhibitory concentration (IC50) is 0.0138 µM.

As to `CCNC(=O)C1CCCN1C(=O)C(CCCN=C(N)N)NC(=O)C(CC(C)C)NC(=O)C(Cc1c[nH]c2ccccc12)NC(=O)C(Cc1ccc(O)cc1)NC(=O)C(CO)NC(=O)C(Cc1c[nH]c2ccccc12)NC(=O)C(Cc1cnc[nH]1)NC(=O)C1CCC(=O)N1` (stereo not drawn), the EC50 is over 178 µM and the IC50 was over 178 µM.

In the case of `NC(Cc1ccccc1)c1nccs1` (stereo not drawn), the EC50 was over 200 µM and the IC50 is over 200 µM.

Turning to `O=C(O)c1ccccc1SCc1cccc2c(=O)c3ccc(Cl)cc3oc12`, the EC50 was 10.2 µM and the IC50 was 30.2 µM.

In the case of `OC[C@H]1C[C@@H]2Cc3ccccc3N2N1`, the EC50 was over 200 µM and the IC50 was over 200 µM.

Turning to `CCOC(=O)C(C)c1nc2c(Cl)c3ncccc3cc2[nH]c1=O` (stereo not drawn), the EC50 was over 200 µM and the IC50 is over 200 µM.

With `C#C/C=C\CCCC/C=C\C#CC#CCCCC#CC#C[C@H](COS(=O)(=O)O)OS(=O)(=O)O`, the EC50 was 30.9 µM and the IC50 is over 200 µM.

In the case of `COc1ccc(/C(=N/O)C(c2ccc(OC)cc2)C2C(=O)Oc3ccccc32)cc1` (stereo not drawn), the EC50 is over 17.8 µM and the IC50 was over 17.8 µM.

For `Cc1ccc(S(=O)(=O)C2CC2(Cl)Cl)cc1` (stereo not drawn), the result was inactive.

For the molecule `C(=NCCSSCCN=Cc1ccccc1)c1ccccc1`, the EC50 was over 200 µM and the IC50 came to 38.9 µM.

Turning to `O=S1(=O)Oc2cccc3cccc1c23`, the outcome was inactive.

Take `C=C(CN(C)C)C(=O)c1ccccc1[N+](=O)[O-]`: the EC50 is over 200 µM and the IC50 came out at 10.7 µM.

In the case of `CN1N=C(c2ccncc2)OC1c1cccc(C(F)(F)F)c1` (stereo not drawn), the EC50 is over 200 µM and the IC50 worked out at 44.7 µM.

For `COC(=O)C12C3C=CC(O3)C1C1C=CC2O1` (stereo not drawn), the result was inactive.

As to `O=C(CCc1nnc2s/c(=C\c3ccccc3)c(=O)n12)Nc1cc(Cl)ccc1Cl`, the EC50 was over 11.7 µM and the IC50 is over 11.7 µM.

For `NC(=O)C(=CN1CC(=O)NC1=S)C(N)=O`, the EC50 is over 200 µM and the IC50 is over 200 µM.

`Cc1ccc(NC(=O)C2C(=O)N(c3ccc(C)c(C)c3)C(=O)/C2=N/O)cc1C` (stereo not drawn): the EC50 is over 19.1 µM and the IC50 was over 19.1 µM.

Turning to `O=C(c1nc2ccc(Cl)cc2[nH]c1=O)C(O)c1cccc([N+](=O)[O-])c1` (stereo not drawn), the EC50 is over 186 µM and the IC50 was determined as 12 µM.

As for `CN(C)CC1C2C=CC(C3CC23)C1CN(C)C` (stereo not drawn), the outcome was inactive.

For `O=C(/C=C/c1ccccc1)CCC1C(=O)c2ccccc2C1=O`, the EC50 was over 23.4 µM and the IC50 is over 23.4 µM.

For `N#Cc1nc(-c2cccnc2)oc1N`, the EC50 is over 200 µM and the IC50 was over 200 µM.

As to `C=CC(=O)N1C/C(=C\c2ccc([N+](=O)[O-])cc2)C(=O)/C(=C/c2ccc([N+](=O)[O-])cc2)C1`, the EC50 was over 200 µM and the IC50 was 0.0631 µM.

Consider `CC1(C)C2CCC(CN=C(N)CSS(=O)(=O)O)C1C2` (stereo not drawn), for which the EC50 is over 200 µM and the IC50 is 33.1 µM.

With `C1=C[C@]2(CCC13OCCO3)COc1ccccc12`, the EC50 was over 200 µM and the IC50 is 18.6 µM.

On to `COC(=O)CC[C@@H](C)C1CCC2(C)c3ccc4c(c3C(=O)C[C@]12C)CC[C@H](OC(C)=O)C4(C)C` (stereo partly drawn), for which the EC50 was over 100 µM and the IC50 was over 100 µM.

With `OC(Nc1ccccn1)(C(F)(F)F)C(F)(F)F`, the EC50 was over 200 µM and the IC50 is over 200 µM.

On to `CC1(C)CC[C@]2(C(=O)OC3OC(CO)C(O)C(O)C3O)CCC3(C)C(=CCC4[C@@]5(C)C[C@H](O)[C@H](OC6OC(CO)C(O)C(O)C6O)[C@@](C)(C(=O)O)C5CC[C@]43C)C2C1` (stereo partly drawn), for which the EC50 is over 191 µM and the IC50 is over 191 µM.

Turning to `CN(C)c1ccc(Cc2cc3c(O)ccc(O)c3cc(Cc3ccc(N(C)C)cc3)c2=O)cc1`, the EC50 was over 200 µM and the IC50 was 3.16 µM.

Turning to `CC(=O)OCCCCn1cnc2nc(Nc3ccccc3)nc(Cl)c21`, the EC50 is over 200 µM and the IC50 turned out to be 135 µM.

Turning to `COC(CC1(OC)OC(=O)C=C1N)OC` (stereo not drawn), the outcome was inactive.

As to `O=C(O)CCC(=O)Nc1ccccc1`, the EC50 is over 200 µM and the IC50 is over 200 µM.

Take `C/C=C(/C1CC2c3[nH]c4ccccc4c3CCN2C(=O)C1C(=O)OCC)[Si](C)(C)C` (stereo not drawn): the EC50 is over 8.91 µM and the IC50 was over 8.91 µM.

Take `Cc1c(=O)n(O)c2ccccc2[n+]1[O-]`: the EC50 is over 200 µM and the IC50 was over 200 µM.

With `CCN(CC)CCNc1ccc(CO)c2oc3ccc(OS(=O)(=O)c4ccc(C)cc4)cc3c(=O)c12`, the EC50 was over 51.3 µM and the IC50 is 8.91 µM.

Take `O=C(c1ccc(Cl)cc1Cl)N(/N=C/C=C/c1ccccc1)c1nnc(-c2ccccc2)c(-c2ccccc2)n1`: the EC50 was over 13.2 µM and the IC50 was over 13.2 µM.

In the case of `O=C(CC(=O)n1nc(-c2ccccc2)c(N=Nc2ccc([N+](=O)[O-])cc2)c1-c1ccccc1)Nc1ccc(Cl)cc1`, the EC50 was over 45.7 µM and the IC50 is over 45.7 µM.

As to `CN1C(=O)N(c2ccccc2)C2(CCN(CC3COc4ccccc4O3)CC2)C1=O` (stereo not drawn), the EC50 is over 200 µM and the IC50 is over 200 µM.

In the case of `O=Cc1cc2sc(C=O)cc2s1`, the outcome was inactive.

For the molecule `CCCCCCSCC(NC(=O)CCC(N)C(=O)O)C(=O)NCC(=O)O` (stereo not drawn), the EC50 is over 24 µM and the IC50 is over 24 µM.

Turning to `O=C(Nc1ccc(C2=NCCN2)cc1)c1cncc(C(=O)Nc2ccc(C3=NCCN3)cc2)c1`, the EC50 is 9.77 µM and the IC50 turned out to be 132 µM.

For the molecule `CSC1SCC2C(=O)N(C)C(C(C)C)C(=O)OCC(NC(=O)c3cnc4ccccc4n3)C(=O)NC(C)C(=O)N(C)C1C(=O)N(C)C(C(C)C)C(=O)OCC(NC(=O)c1cnc3ccccc3n1)C(=O)NC(C)C(=O)N2C` (stereo not drawn), the EC50 is over 0.12 µM and the IC50 is 0.000355 µM.

In the case of `COc1ccc(NC(=S)Nc2cc(C)ccn2)cc1`, the EC50 is over 200 µM and the IC50 is over 200 µM.

Take `O=C(O)CN(c1ccccc1)S(=O)(=O)c1cccc([N+](=O)[O-])c1`: the result was inactive.

Regarding `CCOC(=O)c1cc2c(nc1N)-c1ncccc1CC2`, the EC50 was over 19.5 µM and the IC50 stood at 0.219 µM.

`NN=C1/C(=C\c2ccccc2)CCC/C1=C/c1ccccc1`: the EC50 was over 64.6 µM and the IC50 was over 64.6 µM.

With `COC(=O)C1C2CC3c4[nH]c5cc(OC)ccc5c4CCN3CC2CC(OC)C1OC` (stereo not drawn), the EC50 is over 200 µM and the IC50 is over 200 µM.

Turning to `Cc1c(C(=O)C/C(=N/NC(=O)C[n+]2ccccc2)C(=O)Nc2ccccc2)[n+](=O)c2ccccc2n1O`, the EC50 is over 17.8 µM and the IC50 is over 17.8 µM.

Turning to `CNc1ncnc2c1ncn2C1C=CC(COS(N)(=O)=O)C1` (stereo not drawn), the EC50 is over 200 µM and the IC50 was over 200 µM.

For `COc1c(C)c2c(c3c1c(=O)c1ccccc1n3C)C=CC(C)(C)O2`, the EC50 is over 15.5 µM and the IC50 turned out to be 11 µM.

With `O=C(CC/C(C/C(=N/O)c1ccc(F)cc1)=N/O)N(Cc1ccccc1)Cc1ccccc1`, the EC50 was over 112 µM and the IC50 was over 112 µM.

Take `CC1CN=C(Nc2ccccc2)S1` (stereo not drawn): the EC50 is over 200 µM and the IC50 was over 200 µM.

`[N-]=[N+]=NCN1C(=O)C2C3C=CC(C2C1=O)C1C2C(=O)N(CN=[N+]=[N-])C(=O)C2C31` (stereo not drawn): the result was inactive.

As to `CCCC(=O)OC(C(Cl)(Cl)Cl)P(=O)(OC)OC` (stereo not drawn), the EC50 is over 200 µM and the IC50 came to 30.9 µM.

With `C[N+](C)(C)CCCC#CC[N+]1(C)CCc2ccccc2C1` (stereo not drawn), the result was inactive.

Take `O=c1c(-c2cccc(O)c2O)coc2cc(OC3OC(CO)C(O)C(O)C3O)ccc12` (stereo not drawn): the EC50 is over 200 µM and the IC50 was over 200 µM.

For the molecule `Cc1nonc1NC(=O)OCc1ccccc1`, the EC50 was over 112 µM and the concentration for half-maximal inhibition (IC50) was over 112 µM.

For `COc1cc(CO)c(C2OC(CO)C(O)C2O)c(OC)c1` (stereo not drawn), the outcome was inactive.

As for `Nc1cc(N2CCOCC2)nc(=O)n1-c1ccc(Cl)cc1`, the EC50 was over 200 µM and the IC50 was over 200 µM.

Regarding `CN(C)c1ccc(/C=C/C=C2\C=Cc3ccccc32)cc1`, the EC50 is over 36.3 µM and the IC50 is over 36.3 µM.

On to `COC[C@H]1OC(=O)c2coc3c2[C@@]1(C)C1=C(C3=O)[C@@H]2CCC(=O)[C@@]2(C)C[C@H]1OC(C)=O`, for which the result was inactive.

As to `CCOC(=O)C(NC(=O)CC)(Nc1ccccc1F)C(F)(F)F` (stereo not drawn), the EC50 is over 200 µM and the IC50 was over 200 µM.

For the molecule `CCN(c1ccccc1)c1nc(N)nc(NS(=O)(=O)c2cc(C)c(Cl)cc2S)n1`, the EC50 was 70.8 µM and the IC50 was over 200 µM.

In the case of `CCCCCCO/N=C\c1c2c(O)c3c(O)c(C)c4c(c3c1O)C(=O)C(C)(O/C=C\C(OC)C(C)C(OC(C)=O)C(C)C(O)C(C)C(O)C(C)/C=C\C=C(\C)C(=O)N2)O4` (stereo not drawn), the EC50 is over 200 µM and the IC50 amounted to 5.37 µM.

Consider `C1=CC2C=CC(C=C1)[PH+]2c1ccccc1.[C-]#[O+].[C-]#[O+].[C-]#[O+].[C-]#[O+].[C-]#[O+].[Cr]` (stereo not drawn), for which the EC50 is over 6.76 µM and the IC50 was over 6.76 µM.

As to `CC1=C2C(=CC(C)(C)C2O)C(=O)C(C)(O)C12CC2` (stereo not drawn), the outcome was inactive.

Regarding `C=C(C[N+](C)(C)C)N/N=C/c1oc(-c2ccc(OC)c(OC)c2)c(-c2ccc(OC)c(OC)c2)c1[N+](=O)[O-]`, the EC50 was over 12.9 µM and the IC50 is over 12.9 µM.

For the molecule `Cc1cn([C@H]2C[C@@H]3[C@@H](COC(CCc4ccccc4)N3O)O2)c(=O)[nH]c1=O` (stereo partly drawn), the EC50 was 95.5 µM and the IC50 worked out at 151 µM.

Regarding `COC1N(C2CC(N=[N+]=[N-])C(CO)O2)C(=O)NC(=O)C1(C)Br` (stereo not drawn), the EC50 is 0.00479 µM and 0.00263 µM and 0.0049 µM; the IC50 is 40.7 µM and 38.9 µM and 16.2 µM.
